One series relates to isolated rat aorta. The series is described as follows: Calcium inhibitory properties: contractile response to potassium-induced depolarization on isolated rat aorta. Set-up: species or system isolated organ, male Wistar rats. The note with it: for activity at 1 µM: 10^-6 M; for activity at 0.1 µM: 10^-7 M; for activity at 0.01 µM: 10^-8 M; for activity at 0.001 µM: 10^-9 M. Summed up:
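Male Wistar rat aorta strips under 2 g tension in modified Krebs-bicarbonate at 37° C, gassed with CO2/O2; contraction induced by 100 mM KCl potassium-Krebs. Compound incubated 60 min before repeat K+ depolarization; response expressed as % of maximum contraction before compound.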

A short description of series [1]: Acute toxicity, intravenous, Litchfield and Wilcoxon. The note with it: mouse, in vivo, mice. As for the experimental part:
The acute toxicity of the compounds of the invention was determined intravenously in mice according to the method of Litchfield and Wilcoxon (J. Pharm. Exp. Therap. […], 96, 99).
The following results were obtained, expressed in the form of the LD50, compared with a benzoylindolizine derivative, in this case 2-ethyl-3-{4-[3-(di-n-butylamino)propyloxy]benzoyl}indolizine or butoprozine.

Series [2] relates to epinephrine-induced increase in blood-pressure (anti-α effect). The series is described as follows: Antiadrenergic properties: anti-α effect (reduction of epinephrine-induced hypertension). In kind it is in vivo. Set-up: key to anti-α effect: +: for a reduction < 50%; ++: for a reduction ≥ 50%; +++: for a reduction sub-total (almost complete reduction). The note with it: dog; for inhibition in vivo at 1 mg/kg: 1 mg/kg i.v. Summed up: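 Pentobarbital-anaesthetised, atropinised dogs given an epinephrine dose of 3–10 μg/kg, titrated per animal to raise blood pressure about 133×10^2 Pa. After two reference responses, test compound given intravenously. Result is % reduction of epinephrine-induced hypertension versus reference.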

In series [3] the test system is isoprenaline-induced acceleration in heart rate (anti-β effect). The series is described as follows: Antiadrenergic properties: anti-β effect (reduction of isoprenaline-induced tachycardia). The note with it: dog; for inhibition in vivo at 1 mg/kg: 1 mg/kg i.v. In kind it is in vivo. The arrangement: key to anti-β effect: +: for a reduction < 50%; ++: for a reduction ≥ 50%; +++: for a reduction sub-total (almost complete reduction). In a few lines:
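Pentobarbital-anaesthetized, atropinized dogs given isoprenaline (1–2 μg/kg, dose set per dog for ~70 beats/min rise) alternating with epinephrine every 10 min. After two reference responses, compound given intravenously; % reduction in isoprenaline tachycardia versus reference recorded.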

The mark [4] stands for this setting: Rattus norvegicus, 1 h, read-out: % of the maximum contractional effect.
Setting [5] is: Canis lupus familiaris, iv, 5 mg/kg i.v.

Counter-ions that a name gives are not always drawn.

What is called LD50 is the dose expected to kill half of the subjects tested. With `CCCCN(CCCC)CCCOc1ccc(S(=O)(=O)c2c(C)cn3ccccc23)cc1.O=C(O)C(=O)O` [Ex. 6, 2-Methyl-1-{4-[3-(di-n-butylamino)propyloxy]benzenesulphonyl}indolizine oxalate], in the series on isolated rat aorta (setting [4]), the activity at 1 µM amounted to 13.9% and the activity at 0.1 µM is 69.1%. The compound further returned an LD50 in series [1] of 31 mg/kg.

Consider `CCCN(CCC)CCCOc1ccc(S(=O)(=O)c2c(CC)cn3ccccc23)cc1.Cl` [Ex. 7, 2-Ethyl-1-{4-[3-(di-n-propylamino)propyloxy]benzenesulphonyl}indolizine hydrochloride], for which, in the series on isolated rat aorta (setting [4]), the activity at 1 µM is 8.3% and the activity at 0.1 µM came out at 60%. For the same compound, the Activity ratio in the series with isolated rat aorta (compound / Compound E) was 6.0. In addition, the anti-α effect result in series [2] (5 mg/kg i.v.) is “+++”. Also, in series [3] (5 mg/kg i.v.), the anti-β effect entry is reported as “+++”. This compound also registered an LD50 in series [1] of 26 mg/kg.

One may read the inhibition in vivo as how much of the control response was suppressed. As for `CCc1cn2ccccc2c1S(=O)(=O)c1ccc(OCCCN(C)CCc2ccc(OC)c(OC)c2)cc1` [Ex. 28, 2-Ethyl-1-[4-{3-[N-methyl-N-(3,4-dimethoxy-β-phenethyl)-amino]propyloxy}benzenesulphonyl]indolizine], in the series with isolated rat aorta (setting [4]), the activity at 0.1 µM was 14.2%, the activity at 0.01 µM is 60.2% and the activity at 0.001 µM is 85.4%. Also, the anti-α effect entry in series [2] (0.1 mg/kg i.v.) was “+++”. The inhibition in vivo at 0.1 mg/kg in series [3] (Canis lupus familiaris, iv, 0.1 mg/kg i.v.) is ≥ 50%. In addition, the median lethal dose (LD50) in series [1] amounted to 32 mg/kg.

For `CCCCc1cn2ccccc2c1S(=O)(=O)c1ccc(OCCCN(CCCC)CCCC)cc1.O=C(O)C(=O)O` [Ex. 13, 2-n-Butyl-1-{4-[3-(di-n-butylamino)propyloxy]benzenesulphonyl}indolizine oxalate], in the series on isolated rat aorta (setting [4]), the activity at 1 µM came out at 39.8%. Also, in the series with isolated rat aorta (compound / Compound C), the Activity ratio stood at 2.0. For the same compound, the inhibition in vivo at 5 mg/kg in series [2] (setting [5]) and in series [3] (setting [5]) was ≥ 50% throughout. The compound also showed an LD50 in series [1] of 31 mg/kg.

Turning to `CCCCN(CCCC)CCCOc1ccc(S(=O)(=O)c2c(CC)cn3ccccc23)cc1C.Cl` [Ex. 9, 2-Ethyl-1-{4-[3-(di-n-butylamino)propyloxy]-3-methylbenzenesulphonyl}indolizine hydrochloride], in the series with isolated rat aorta (setting [4]), the activity at 1 µM worked out at 17.4% and the activity at 0.1 µM amounted to 57.2%. Moreover, the inhibition in vivo at 1 mg/kg in series [2] (Canis lupus familiaris, iv) was ≥ 50%. The inhibition in vivo at 1 mg/kg in series [3] (Canis lupus familiaris, iv) was ≥ 50%. In series [1], this compound returned an LD50 of 55 mg/kg.

In the case of `CCCCN(CCCC)CCCOc1ccc(S(=O)(=O)c2c(CCC)cn3ccccc23)cc1.O=C(O)C(=O)O` [Ex. 11, 2-n-Propyl-1-{4-[3-(di-n-butylamino)propyloxy]benzenesulphonyl}indolizine oxalate], in the series on isolated rat aorta (setting [4]), the activity at 1 µM is 8.8% and the activity at 0.1 µM was 37.7%. Also, the inhibition in vivo at 1 mg/kg in series [2] (Canis lupus familiaris, iv) is ≥ 50%. Also, the inhibition in vivo at 1 mg/kg in series [3] (Canis lupus familiaris, iv) was ≥ 50%. In series [1], this compound gave an LD50 of 28 mg/kg.

As for `CCCCN(CCCC)CCCOc1ccc(S(=O)(=O)c2c(-c3ccccc3)cn3ccccc23)cc1.Cl` [Ex. 18, 2-Phenyl-1-{4-[3-(di-n-butylamino)propyloxy]benzenesulphonyl}indolizine hydrochloride], the activity at 1 µM in the series on isolated rat aorta (setting [4]) was 55.6%. Also, the LD50 in series [1] was found to be 35 mg/kg.

Take `CCCCN(CCCC)CCCOc1ccc(S(=O)(=O)c2c(-c3ccccc3)cn3ccccc23)cc1C.Cl` [Ex. 19, 2-Phenyl-1-{4-[3-(di-n-butylamino)propyloxy]-3-methylbenzenesulphonyl}indolizine hydrochloride]: the activity at 1 µM with isolated rat aorta (setting [4]) turned out to be 77.2%. For the same compound, in series [1], the LD50 was determined as 60 mg/kg.

Regarding `CCCCN(CCCC)CCCOc1ccc(C(=O)c2c(CC)cc3ccccn23)cc1` [Butoprozine, 2-ethyl-3-{4-[3-(di-n-butylamino)propyloxy]benzoyl}indolizine, reference compound], the LD50 in series [1] worked out at 23 mg/kg.

For `COc1cc(CCN(C)CCCOc2ccc(S(=O)(=O)c3c(C(C)C)cn4ccccc34)cc2)cc(OC)c1` [Ex. 145, 2-isopropyl-1[4-{3-[N-methyl-N-(3,5-dimethoxy-β-phenethyl)amino]propyloxy}benzenesulphonyl]indolizine acid oxalate], in the series on isolated rat aorta (setting [4]), the activity at 0.01 µM came to 21% and the activity at 0.001 µM came out at 57.7%. Besides, the activity at 0.0001 µM with isolated rat aorta (Rattus norvegicus, 1 h, 10^-10 M, read-out: % of the maximum contractional effect) turned out to be 81%. Besides, the anti-α effect result in series [2] (0.033 mg/kg i.v.) is reported as “+++”. Also, in series [3] (Canis lupus familiaris, iv, 0.033 mg/kg i.v.), the inhibition in vivo at 0.033 mg/kg is ≥ 50%.

As to `CCc1cn2ccccc2c1S(=O)(=O)c1ccc(OCCCN2CCCCC2)cc1.Cl` [Ex. 2, 2-ethyl-1-[4-(3-piperidinopropyloxy)benzenesulphonyl]indolizine hydrochloride], in the series on isolated rat aorta (setting [4]), the activity at 1 µM worked out at 22.6% and the activity at 0.1 µM was 79.8%. Besides, in series [2] (5 mg/kg i.v.), the anti-α effect result is recorded as “+++”. Besides, the inhibition in vivo at 5 mg/kg in series [3] (setting [5]) was ≥ 50%.

Consider `COc1ccc(CCN(C)CCCOc2ccc(S(=O)(=O)c3c(C(C)C)cn4ccccc34)cc2)cc1OC` [Ex. 30, 2-Isopropyl-1-[4-{3-[N-methyl-N-(3,4-dimethoxy-β-phenethyl)amino]propyloxy}benzenesulphonyl]indolizine], for which, in the series on isolated rat aorta (setting [4]), the activity at 0.1 µM was determined as 9.4%, the activity at 0.01 µM was found to be 40.1% and the activity at 0.001 µM is 81.7%. In series [2] (0.1 mg/kg i.v.), the anti-α effect result is “+++”. The anti-β effect entry in series [3] (0.1 mg/kg i.v.) is “+++”. In addition, the LD50 in series [1] worked out at 140 mg/kg.

For the origin of these results see US5147878A, “Aminoalkoxyphenyl derivatives, process of preparation and compositions containing the same” (Sanofi, priority 1986, dated 1992).
